Legend:
Fusarium culmorum [1] = experiment: microbe, parasite or virus in culture; type: cell-based; details: read-out: control of Fusarium culmorum
Fusarium culmorum [2] = experiment: whole plant or invertebrate; type: in vivo; details: in Triticum aestivum, read-out: control of Fusarium culmorum
[3] = tested on: Glomerella lagenarium (Colletotrichum lagenarium); experiment: Glomerella lagenarium (Colletotrichum lagenarium) / liquid culture (anthracnose); type: cell-based; details: Colletotrichum orbiculare; read-out: control of Glomerella lagenarium
[4] = tested on: Botryotinia fuckeliana (Botrytis cinerea); experiment: Botryotinia fuckeliana (Botrytis cinerea) / liquid culture (gray mould); type: cell-based; details: 72 h, read-out: control of Botryotinia fuckeliana

SMILES	melting point [°C]	inhibition of growth at 200 ppm (Fusarium culmorum [1]) [%]	pest or weed control at 200 ppm (Fusarium culmorum [2]) [%]	inhibition of growth at 200 ppm [3] [%]	inhibition of growth at 200 ppm [4] [%]
Cc1c(C(=O)NC(C)(Cc2ccccc2)CC(F)(F)F)cnc2c(F)cccc12 (stereo not drawn) [Compound E-90, N-(1-benzyl-3,3,3-trifluoro-1-methyl-propyl)-8-fluoro-4-methyl-quinoline-3-carboxamide]	154 to 158	≥ 80	≥ 80	≥ 80	≥ 80
Cc1c(C(=O)NC(C)(Cc2ccccc2)CC(C)C)cnc2c(Cl)cccc12 (stereo not drawn) [Compound E-107, N-(1-benzyl-1,3-dimethyl-butyl)-8-chloro-4-methyl-quinoline-3-carboxamide]	65 to 70	≥ 80	≥ 80	–	≥ 80
CC(Cc1ccccc1)(CC(F)(F)F)NC(=O)c1cnc2c(Cl)c(F)ccc2c1 (stereo not drawn) [Compound E-93, N-(1-benzyl-3,3,3-trifluoro-1-methyl-propyl)-8-chloro-7-fluoro-quinoline-3-carboxamide]	150 to 152	≥ 80	≥ 80	≥ 80	≥ 80
COc1ccc2ncc(C(=O)NC(C)(Cc3ccccc3)CC(C)C)cc2c1 (stereo not drawn) [Compound E-63, N-(1-benzyl-1,3-dimethyl-butyl)-6-methoxy-quinoline-3-carboxamide]	102 to 105	–	–	–	≥ 80
Cc1c(C(=O)NC(C)(Cc2ccccc2)CC(F)(F)F)cnc2c(C#N)cccc12 (stereo not drawn) [Compound E-105, N-(1-benzyl-3,3,3-trifluoro-1-methyl-propyl)-8-cyano-4-methyl-quinoline-3-carboxamide]	194 to 197	≥ 80	≥ 80	–	–
Cc1c(C(=O)NC(C)(Cc2ccccc2)CC(F)(F)F)cnc2c(Cl)cccc12 (stereo not drawn) [Compound E-104, N-(1-benzyl-3,3,3-trifluoro-1-methyl-propyl)-8-chloro-4-methyl-quinoline-3-carboxamide]	184 to 186	≥ 80	≥ 80	≥ 80	≥ 80
CCC(Cc1ccccc1)(CC(F)(F)F)NC(=O)c1cnc2c(F)cccc2c1 (stereo not drawn) [Compound E-101, N-(1-benzyl-1-ethyl-3,3,3-trifluoro-propyl)-8-fluoro-quinoline-3-carboxamide]	127 to 129	≥ 80	≥ 80	≥ 80	≥ 80
CC(C)CC(C)(Cc1ccccc1)NC(=O)c1cnc2cccc(O)c2c1 (stereo not drawn) [Compound E-87, N-(1-benzyl-1,3-dimethyl-butyl)-5-hydroxy-quinoline-3-carboxamide]	90 to 95	≥ 80	–	≥ 80	≥ 80
Cc1c(F)ccc2cc(C(=O)NC(C)(Cc3ccccc3)CC(F)(F)F)cnc12 (stereo not drawn) [Compound E-100, N-(1-benzyl-3,3,3-trifluoro-1-methyl-propyl)-7-fluoro-8-methyl-quinoline-3-carboxamide]	127 to 129	≥ 80	≥ 80	≥ 80	≥ 80
CC(Cc1ccccc1)(CC1CCC1)NC(=O)c1cnc2ccccc2c1 (stereo not drawn) [Compound E-111, N-(1-benzyl-2-cyclobutyl-1-methyl-ethyl)quinoline-3-carboxamide]	88 to 90	≥ 80	–	≥ 80	≥ 80
CC(C=C(F)F)(Cc1ccccc1)NC(=O)c1cnc2c(F)cccc2c1 (stereo not drawn) [Compound E-94, N-(1-benzyl-3,3-difluoro-1-methyl-allyl)-8-fluoro-quinoline-3-carboxamide]	99 to 101	≥ 80	≥ 80	≥ 80	≥ 80
CC(C)CC(C)(Cc1ccccc1)NC(=O)c1cnc2cccc(Cl)c2c1 (stereo not drawn) [Compound E-64, N-(1-benzyl-1,3-dimethyl-butyl)-5-chloro-quinoline-3-carboxamide]	50 to 60	≥ 80	–	–	≥ 80
CC(C)(Cc1ccccc1OC(F)(F)F)NC(=O)c1cnc2ccccc2c1 [Compound E-3, N-[1,1-dimethyl-2-[2-(trifluoromethoxy)phenyl]ethyl]quinoline-3-carboxamide]	145 to 149	–	–	–	≥ 80
Cc1cccc2ncc(C(=O)NC(C)(Cc3ccccc3)CC(F)(F)F)cc12 (stereo not drawn) [Compound E-86, N-(1-benzyl-3,3,3-trifluoro-1-methyl-propyl)-5-methyl-quinoline-3-carboxamide]	101 to 103	≥ 80	≥ 80	≥ 80	≥ 80
Cc1cccc2ncc(C(=O)NC(C)(Cc3ccccc3)CC(C)C)cc12 (stereo not drawn) [Compound E-85, N-(1-benzyl-1,3-dimethyl-butyl)-5-methyl-quinoline-3-carboxamide]	79 to 81	≥ 80	≥ 80	–	≥ 80
CC(Cc1ccccc1)(CC(F)(F)F)NC(=O)c1cnc2cccc(Cl)c2c1 (stereo not drawn) [Compound E-68, N-(1-benzyl-3,3,3-trifluoro-1-methyl-propyl)-5-chloro-quinoline-3-carboxamide]	85 to 88	≥ 80	–	–	–
CC(C)CC(C)(Cc1ccccc1)NC(=O)c1cnc2c(C#N)cccc2c1 (stereo not drawn)	160 to 162	–	–	–	–
CC(Cc1ccccc1)(CC(F)F)NC(=O)c1cnc2c(F)cccc2c1 (stereo not drawn) [Compound E-95, N-(1-benzyl-3,3-difluoro-1-methyl-propyl)-8-fluoro-quinoline-3-carboxamide]	–	≥ 80	≥ 80	≥ 80	≥ 80
CC(C#N)(Cc1ccccc1Cl)NC(=O)c1cnc2c(F)cccc2c1 (stereo not drawn) [Compound E-18, N-[2-(2-chlorophenyl)-1-cyano-1-methyl-ethyl]-8-fluoro-quinoline-3-carboxamide]	198 to 203	≥ 80	–	–	≥ 80
CC(C)C[C@](C)(Cc1ccccc1)NC(=O)c1cnc2cc(F)ccc2c1 [Compound F-13, N-[(1R)-1-benzyl-1,3-dimethyl-butyl]-7-fluoro-quinoline-3-carboxamide]	–	≥ 80	≥ 80	≥ 80	≥ 80
CC(C)CC(C)(Cc1ccccc1)NC(=O)c1cnc2cc(C#N)ccc2c1 (stereo not drawn) [Compound E-67, N-(1-benzyl-1,3-dimethyl-butyl)-7-cyano-quinoline-3-carboxamide]	170 to 172	≥ 80	≥ 80	–	≥ 80
C[C@](Cc1ccccc1)(CC(F)(F)F)NC(=O)c1cnc2c(F)cccc2c1 [Compound F-11, N-[(1S)-1-benzyl-3,3,3-trifluoro-1-methyl-propyl]-8-fluoro-quinoline-3-carboxamide]	–	≥ 80	≥ 80	≥ 80	≥ 80
CC(C)C[C@](C)(Cc1ccccc1)NC(=O)c1cnc2c(F)c(F)ccc2c1 [Compound F-21, N-[(1R)-1-benzyl-1,3-dimethyl-butyl]-7,8-difluoro-quinoline-3-carboxamide]	–	≥ 80	≥ 80	≥ 80	≥ 80
Cc1nc2c(Cl)cccc2cc1C(=O)NC(C)(Cc1ccccc1)CC(F)(F)F (stereo not drawn) [Compound E-110, N-(1-benzyl-3,3,3-trifluoro-1-methyl-propyl)-8-chloro-2-methyl-quinoline-3-carboxamide]	176 to 179	≥ 80	–	–	≥ 80
Cc1nc2c(F)cccc2cc1C(=O)N[C@@](C)(Cc1ccccc1)CC(F)(F)F [Compound F-33, N-[(1S)-1-benzyl-3,3,3-trifluoro-1-methyl-propyl]-8-fluoro-2-methyl-quinoline-3-carboxamide]	–	≥ 80	≥ 80	≥ 80	≥ 80
C=C(C)C[C@@](C)(Cc1ccccc1)NC(=O)c1cnc2c(F)c(F)ccc2c1 [Compound F-19, N-[(1S)-1-benzyl-1,3-dimethyl-but-3-enyl]-7,8-difluoro-quinoline-3-carboxamide]	–	≥ 80	≥ 80	≥ 80	≥ 80
CC(Cc1ccccc1)(CC(F)(F)F)NC(=S)c1cnc2c(F)cccc2c1 (stereo not drawn) [Compound E-115, N-(1-benzyl-3,3,3-trifluoro-1-methyl-propyl)-8-fluoro-quinoline-3-carbothioamide]	173 to 175	≥ 80	–	≥ 80	≥ 80
CC(C#N)(Cc1ccccc1F)NC(=O)c1cnc2ccccc2c1 (stereo not drawn) [Compound E-4, N-[1-cyano-2-(2-fluorophenyl)-1-methyl-ethyl]quinoline-3-carboxamide]	134 to 139	≥ 80	–	–	–
CC(Cc1ccccc1)(CC(F)(F)F)NC(=O)c1cnc2cc(C#N)ccc2c1 (stereo not drawn) [Compound E-70, N-(1-benzyl-3,3,3-trifluoro-1-methyl-propyl)-7-cyano-quinoline-3-carboxamide]	172 to 174	≥ 80	≥ 80	–	≥ 80

Reference: patent US10477864B2, “Microbiocidal quinoline (thio)carboxamide derivatives” (priority 2016, dated 2019)
